From US10487080B2, “Naphthyridines as integrin antagonists” (GlaxoSmithKline Intellectual Property Development Limited, priority 2016, dated 2019)

Tests used:
Assay type in all cases: cell-based
αvβ3 = target: T1, αvβ3 (Homo sapiens, UniProt P05106+P06756); assay: Cell Adhesion Assay αvβ3; conditions: K562-αvβ3 cells, ligand LAP-b1, 2 mM MgCl2; read-out: mean affinity (pIC50) αvβ3 (converted)
T1 construct: expressed in transfected cells; host or cells: K562-αvβ3
Method: (§1) The following cell lines are used, with ligands in brackets: K562-αvβ3 (LAP-b1), K562-αvβ5 (Vitronectin), K562-αvβ6 (LAP-b1), K562-αvβ8 (LAP-b1), A549-αvβ1 (LAP-b1). The divalent cation used to facilitate adhesion is 2 mM MgCl2. Adhesion is quantified by cell labelling with the fluorescent dye BCECF-AM (Life Technologies), where cell suspensions at 3×10^6cells/nnL are incubated with 0.33 uL/mL of 30 mM BCECF-AM at 37° C. for 10 minutes, then 50 μL/well are dispensed into the 96-well assay plate. At the assay conclusion cells that adhered are lysed using 50 μL/well of 0.5% Triton X-100 in H2O to release fluorescence. Fluorescence intensity is detected using an Envision® plate reader (Perkin Elmer). For active antagonists in the assay, data is fitted to a 4 parameter logistic equation for IC50 determinations.
(§2) Those of skill in the art will recognise that in vitro binding assays and cell-based assays for functional activity are subject to experimental variability.

αvβ1 = target: T2, αvβ1 (Homo sapiens, UniProt P05556+P06756); assay: Cell Adhesion Assay αvβ1; conditions: A549-αvβ1 cells, ligand LAP-b1, 2 mM MgCl2; read-out: mean affinity (pIC50) αvβ1 (converted)
T2 construct: host or cells: A549-αvβ1
Method: as §1, §2

αvβ6 = target: T3, αvβ6 (Homo sapiens, UniProt P06756+P18564); assay: Cell Adhesion Assay αvβ6; conditions: K562-αvβ6 cells, ligand LAP-b1, 2 mM MgCl2; read-out: mean affinity (pIC50) αvβ6 (converted)
T3 construct: expressed in transfected cells; host or cells: K562-αvβ6
Method: as §1, §2

αvβ5 = target: T4, αvβ5 (Homo sapiens, UniProt P06756+P18084); assay: Cell Adhesion Assay αvβ5; conditions: K562-αvβ5 cells, ligand Vitronectin, 2 mM MgCl2; read-out: mean affinity (pIC50) αvβ5 (converted)
T4 construct: expressed in transfected cells; host or cells: K562-αvβ5
Method: as §1, §2

αvβ8 = target: T5, αvβ8 (Homo sapiens, UniProt P06756+P26012); assay: Cell Adhesion Assay αvβ8; conditions: K562-αvβ8 cells, ligand LAP-b1, 2 mM MgCl2; read-out: mean affinity (pIC50) αvβ8 (converted)
T5 construct: expressed in transfected cells; host or cells: K562-αvβ8
Method: as §1, §2

T3 sequence (P06756 31-889 limits assumed): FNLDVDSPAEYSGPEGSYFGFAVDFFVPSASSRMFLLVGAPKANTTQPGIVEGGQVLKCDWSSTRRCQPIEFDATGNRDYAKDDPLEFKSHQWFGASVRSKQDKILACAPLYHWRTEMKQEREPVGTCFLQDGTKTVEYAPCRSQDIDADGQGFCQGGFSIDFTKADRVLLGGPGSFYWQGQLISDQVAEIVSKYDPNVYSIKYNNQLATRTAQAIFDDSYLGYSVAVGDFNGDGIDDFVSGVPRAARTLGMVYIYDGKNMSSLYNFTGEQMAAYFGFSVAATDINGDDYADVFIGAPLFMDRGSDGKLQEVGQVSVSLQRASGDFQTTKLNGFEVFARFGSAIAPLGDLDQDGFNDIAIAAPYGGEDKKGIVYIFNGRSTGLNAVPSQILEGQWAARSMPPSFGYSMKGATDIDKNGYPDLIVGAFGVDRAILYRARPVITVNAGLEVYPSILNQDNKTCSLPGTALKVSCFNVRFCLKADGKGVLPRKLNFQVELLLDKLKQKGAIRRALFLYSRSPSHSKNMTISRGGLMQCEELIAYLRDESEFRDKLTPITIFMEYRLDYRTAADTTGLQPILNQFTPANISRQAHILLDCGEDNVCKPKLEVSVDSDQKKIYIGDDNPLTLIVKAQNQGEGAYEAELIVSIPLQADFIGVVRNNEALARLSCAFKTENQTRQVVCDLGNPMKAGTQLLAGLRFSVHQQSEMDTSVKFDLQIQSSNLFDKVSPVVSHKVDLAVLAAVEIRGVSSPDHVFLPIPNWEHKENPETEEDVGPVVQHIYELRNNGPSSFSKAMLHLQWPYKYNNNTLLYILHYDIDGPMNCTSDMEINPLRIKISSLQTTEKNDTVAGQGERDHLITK
T3 sequence (P06756 891-1048 partner limits assumed): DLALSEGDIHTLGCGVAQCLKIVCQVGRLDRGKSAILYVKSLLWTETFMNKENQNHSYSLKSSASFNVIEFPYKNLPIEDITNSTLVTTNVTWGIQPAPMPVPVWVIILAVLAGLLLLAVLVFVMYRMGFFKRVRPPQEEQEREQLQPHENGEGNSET
T3 sequence (P18564 22-788): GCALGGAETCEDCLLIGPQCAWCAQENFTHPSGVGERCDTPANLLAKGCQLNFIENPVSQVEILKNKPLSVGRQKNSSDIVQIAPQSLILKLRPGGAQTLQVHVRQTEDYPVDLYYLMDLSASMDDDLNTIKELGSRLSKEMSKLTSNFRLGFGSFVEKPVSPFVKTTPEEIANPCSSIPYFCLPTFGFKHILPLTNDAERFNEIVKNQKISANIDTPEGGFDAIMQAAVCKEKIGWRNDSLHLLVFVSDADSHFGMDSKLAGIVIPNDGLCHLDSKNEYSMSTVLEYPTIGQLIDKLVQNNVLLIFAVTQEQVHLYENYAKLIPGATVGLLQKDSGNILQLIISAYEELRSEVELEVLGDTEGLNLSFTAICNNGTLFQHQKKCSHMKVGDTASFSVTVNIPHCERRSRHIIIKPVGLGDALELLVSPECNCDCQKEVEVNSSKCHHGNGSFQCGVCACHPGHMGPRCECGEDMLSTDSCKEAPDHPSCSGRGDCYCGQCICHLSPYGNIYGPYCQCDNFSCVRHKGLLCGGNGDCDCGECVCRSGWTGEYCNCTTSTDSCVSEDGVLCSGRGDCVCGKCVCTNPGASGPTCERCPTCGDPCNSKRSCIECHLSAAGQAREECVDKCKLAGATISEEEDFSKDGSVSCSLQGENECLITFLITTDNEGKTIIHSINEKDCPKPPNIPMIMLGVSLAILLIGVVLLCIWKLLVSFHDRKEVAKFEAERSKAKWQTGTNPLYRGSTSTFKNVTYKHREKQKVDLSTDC
T2 sequence (P06756 31-889 limits assumed): as the sequence (P06756 31-889 limits assumed) above
T2 sequence (P06756 891-1048 partner limits assumed): as the sequence (P06756 891-1048 partner limits assumed) above
T2 sequence (P05556 21-798): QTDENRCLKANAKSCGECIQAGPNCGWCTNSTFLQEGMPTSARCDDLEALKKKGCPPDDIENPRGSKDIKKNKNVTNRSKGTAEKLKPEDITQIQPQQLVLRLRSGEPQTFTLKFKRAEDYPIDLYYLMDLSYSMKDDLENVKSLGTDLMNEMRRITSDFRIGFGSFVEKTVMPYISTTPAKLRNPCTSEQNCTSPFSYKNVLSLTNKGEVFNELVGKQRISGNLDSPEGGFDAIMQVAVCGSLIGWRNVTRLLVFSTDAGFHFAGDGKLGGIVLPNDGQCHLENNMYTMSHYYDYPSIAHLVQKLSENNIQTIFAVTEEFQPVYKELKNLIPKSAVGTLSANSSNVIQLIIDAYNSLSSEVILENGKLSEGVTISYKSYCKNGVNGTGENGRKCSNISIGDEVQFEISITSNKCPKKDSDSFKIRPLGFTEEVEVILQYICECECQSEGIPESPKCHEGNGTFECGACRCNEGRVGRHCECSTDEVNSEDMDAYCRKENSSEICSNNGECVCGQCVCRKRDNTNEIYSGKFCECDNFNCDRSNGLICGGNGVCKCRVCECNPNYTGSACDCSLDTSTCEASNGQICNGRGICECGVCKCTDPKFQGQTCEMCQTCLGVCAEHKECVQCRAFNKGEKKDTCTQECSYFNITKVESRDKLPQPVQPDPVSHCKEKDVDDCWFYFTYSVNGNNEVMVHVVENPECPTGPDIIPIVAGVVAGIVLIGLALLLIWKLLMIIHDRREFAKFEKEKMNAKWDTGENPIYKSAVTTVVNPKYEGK
T5 sequence (P06756 31-889 limits assumed): as the sequence (P06756 31-889 limits assumed) above
T5 sequence (P06756 891-1048 partner limits assumed): as the sequence (P06756 891-1048 partner limits assumed) above
T5 sequence (P26012 43-769): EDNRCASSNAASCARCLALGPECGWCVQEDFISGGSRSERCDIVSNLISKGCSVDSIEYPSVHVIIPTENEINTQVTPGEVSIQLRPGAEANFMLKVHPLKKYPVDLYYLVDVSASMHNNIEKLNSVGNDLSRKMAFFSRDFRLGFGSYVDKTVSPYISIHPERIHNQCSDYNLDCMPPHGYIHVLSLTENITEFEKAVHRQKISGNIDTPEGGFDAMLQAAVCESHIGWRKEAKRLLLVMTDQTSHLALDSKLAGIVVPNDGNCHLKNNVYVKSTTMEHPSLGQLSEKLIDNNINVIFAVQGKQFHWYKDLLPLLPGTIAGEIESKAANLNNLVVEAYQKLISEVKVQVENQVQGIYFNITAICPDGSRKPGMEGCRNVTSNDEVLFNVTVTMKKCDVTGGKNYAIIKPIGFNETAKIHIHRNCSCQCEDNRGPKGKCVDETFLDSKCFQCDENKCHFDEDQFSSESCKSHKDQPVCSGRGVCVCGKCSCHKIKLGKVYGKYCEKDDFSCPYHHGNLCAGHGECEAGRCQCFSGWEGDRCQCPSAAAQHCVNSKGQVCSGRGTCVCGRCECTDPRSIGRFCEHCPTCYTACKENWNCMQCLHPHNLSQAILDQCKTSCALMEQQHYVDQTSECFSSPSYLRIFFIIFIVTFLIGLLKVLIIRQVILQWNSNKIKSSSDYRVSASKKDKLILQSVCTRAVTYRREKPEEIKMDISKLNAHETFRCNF
T4 sequence (P06756 31-889 limits assumed): as the sequence (P06756 31-889 limits assumed) above
T4 sequence (P06756 891-1048 partner limits assumed): as the sequence (P06756 891-1048 partner limits assumed) above
T4 sequence (P18084 24-799): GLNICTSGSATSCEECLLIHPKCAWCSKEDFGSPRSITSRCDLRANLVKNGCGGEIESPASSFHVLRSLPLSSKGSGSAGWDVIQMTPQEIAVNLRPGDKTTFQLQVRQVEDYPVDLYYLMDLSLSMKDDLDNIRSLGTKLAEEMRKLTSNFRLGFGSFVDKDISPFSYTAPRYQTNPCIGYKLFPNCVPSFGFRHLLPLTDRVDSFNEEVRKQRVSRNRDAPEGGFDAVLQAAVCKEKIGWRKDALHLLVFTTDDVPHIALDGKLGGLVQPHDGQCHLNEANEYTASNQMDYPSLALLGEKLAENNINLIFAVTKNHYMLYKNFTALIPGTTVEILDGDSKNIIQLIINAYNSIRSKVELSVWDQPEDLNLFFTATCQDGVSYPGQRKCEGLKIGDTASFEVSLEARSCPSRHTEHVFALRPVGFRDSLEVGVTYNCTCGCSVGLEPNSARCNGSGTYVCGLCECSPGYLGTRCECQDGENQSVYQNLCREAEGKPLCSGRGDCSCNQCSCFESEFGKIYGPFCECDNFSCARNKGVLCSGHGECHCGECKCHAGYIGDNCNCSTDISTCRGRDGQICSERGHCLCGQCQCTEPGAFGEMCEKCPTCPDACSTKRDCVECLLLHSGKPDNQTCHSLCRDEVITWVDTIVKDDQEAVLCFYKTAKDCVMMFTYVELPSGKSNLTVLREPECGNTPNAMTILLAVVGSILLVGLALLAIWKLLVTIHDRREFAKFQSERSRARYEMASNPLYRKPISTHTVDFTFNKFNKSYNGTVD

Which results are given for `COC[C@H](C)Oc1cccc(C(CC(=O)O)CN2CC[C@@H](CCc3ccc4c(n3)NCCC4)C2)c1` (single isomer, unassigned) [Example 5]?
IC50 (αvβ3): 3160 nM; IC50 (αvβ1): 251 nM

How did the IC50 (αvβ6) turn out when `COCCOc1cccc([C@H](CC(=O)O)CN2CC[C@@H](CCc3ccc4c(n3)NCCC4)C2)c1` [Example 1, (S)-3-(3-(2-methoxyethoxy)phenyl)-4-((R)-3-(2-(5,6,7,8-tetrahydro-1,8-naphthyridin-2-yl)ethyl)pyrrolidin-1-yl)butanoic acid] was run?
The IC50 was 3.16 nM.

And the IC50 (αvβ5)?
The IC50 was 10 nM.

And the IC50 (αvβ1)?
The IC50 was 158 nM.

With `CO[C@H](C)COc1cccc([C@H](CC(=O)O)CN2CC[C@@H](CCc3ccc4c(n3)NCCC4)C2)c1` [Example 2, (S)-3-(3-((R)-2-methoxypropoxy)phenyl)-4-((R)-3-(2-(5,6,7,8-tetrahydro-1,8-naphthyridin-2-yl)ethyl)pyrrolidin-1-yl)butanoic acid] as the molecule, how does the IC50 (αvβ3) read?
The IC50 was 63.1 nM.

And the IC50 (αvβ6)?
The IC50 was 2.51 nM.

And the IC50 (αvβ5)?
Its IC50 is 15.8 nM.

What about the IC50 (αvβ1) of the same molecule?
Its IC50 is 100 nM.

Which IC50 (αvβ6) does the source give for `CO[C@@H](C)COc1cccc([C@H](CC(=O)O)CN2CC[C@@H](CCc3ccc4c(n3)NCCC4)C2)c1` [Example 3, (S)-3-(3-((S)-2-methoxypropoxy)phenyl)-4-((R)-3-(2-(5,6,7,8-tetrahydro-1,8-naphthyridin-2-yl)ethyl)pyrrolidin-1-yl)butanoic acid] here?
The IC50 was 2.51 nM.

What about the IC50 (αvβ5) of the same molecule?
Its IC50 is 15.8 nM.

And the IC50 (αvβ1)?
The IC50 was 126 nM.

And the IC50 (αvβ8)?
The IC50 was 15.8 nM.

Which results are given for `COC(C)(C)COc1cccc([C@H](CC(=O)O)CN2CC[C@@H](CCc3ccc4c(n3)NCCC4)C2)c1` [Example 4, (S)-3-(3-(2-methoxy-2-methylpropoxy)phenyl)-4-((R)-3-(2-(5,6,7,8-tetrahydro-1,8-naphthyridin-2-yl)ethyl)pyrrolidin-1-yl)butanoic acid]?
IC50 (αvβ3): 200 nM; IC50 (αvβ1): 158 nM; IC50 (αvβ8): 15.8 nM

What does the source list for `COCCOc1cc(OCCOC)cc([C@H](CC(=O)O)CN2CC[C@@H](CCc3ccc4c(n3)NCCC4)C2)c1` [Example 8, (S)-3-(3,5-Bis(2-methoxyethoxy)phenyl)-4-((R)-3-(2-(5,6,7,8-tetrahydro-1,8-naphthyridin-2-yl)ethyl)pyrrolidin-1-yl)butanoic acid]?
IC50 (αvβ3): 126 nM; IC50 (αvβ6): 3.16 nM; IC50 (αvβ5): 31.6 nM; IC50 (αvβ1): 200 nM; IC50 (αvβ8): 20 nM

Which results are given for `COCC(C)(C)Oc1cccc([C@H](CC(=O)O)CN2CC[C@@H](CCc3ccc4c(n3)NCCC4)C2)c1` [Example 11]?
IC50 (αvβ3): 316 nM; IC50 (αvβ5): 63.1 nM; IC50 (αvβ1): 50.1 nM; IC50 (αvβ8): 15.8 nM

How did the IC50 (αvβ3) turn out when `COC[C@@H](C)Oc1cccc([C@H](CC(=O)O)CN2CC[C@@H](CCc3ccc4c(n3)NCCC4)C2)c1` [Example 12, (S)-3-(3-(((R)-1-methoxypropan-2-yl)oxy)phenyl)-4-((R)-3-(2-(5,6,7,8-tetrahydro-1,8-naphthyridin-2-yl)ethyl)pyrrolidin-1-yl)butanoic acid] was run?
The IC50 was 251 nM.

What about the IC50 (αvβ5) of the same molecule?
The IC50 was 63.1 nM.

For `CC(C)OCCOc1cccc([C@H](CC(=O)O)CN2CC[C@@H](CCc3ccc4c(n3)NCCC4)C2)c1` [Example 13, (S)-3-(3-(2-Isopropoxyethoxy)phenyl)-4-((R)-3-(2-(5,6,7,8-tetrahydro-1,8-naphthyridin-2-yl)ethyl)pyrrolidin-1-yl)butanoic acid], which IC50 (αvβ3) is on record?
Its IC50 is 100 nM.

What about the IC50 (αvβ6) of the same molecule?
The IC50 was 10 nM.

What about the IC50 (αvβ5) of the same molecule?
The IC50 was 31.6 nM.

And the IC50 (αvβ8)?
The IC50 was 20 nM.

Which IC50 (αvβ3) does the source give for `O=C(O)C[C@H](CN1CC[C@@H](CCc2ccc3c(n2)NCCC3)C1)c1cccc(OC[C@H]2CCCO2)c1` [Example 14, (S)-4-((R)-3-(2-(5,6,7,8-Tetrahydro-1,8-naphthyridin-2-yl)ethyl)pyrrolidin-1-yl)-3-(3-(((R)-tetrahydrofuran-2-yl)methoxy)phenyl)butanoic acid] here?
Its IC50 is 79.4 nM.

And the IC50 (αvβ6)?
Its IC50 is 5.01 nM.

And the IC50 (αvβ5)?
The IC50 was 39.8 nM.

What about the IC50 (αvβ1) of the same molecule?
The IC50 was 398 nM.

What about the IC50 (αvβ8) of the same molecule?
Its IC50 is 20 nM.

Which results are given for `O=C(O)C[C@H](CN1CC[C@@H](CCc2ccc3c(n2)NCCC3)C1)c1cccc(OC[C@@H]2CCCO2)c1` [Example 15, (S)-4-((R)-3-(2-(5,6,7,8-tetrahydro-1,8-naphthyridin-2-yl)ethyl)pyrrolidin-1-yl)-3-(3-(((S)-tetra hydrofuran-2-yl)methoxy)phenyl)butanoic acid]?
IC50 (αvβ3): 100 nM; IC50 (αvβ6): 5.01 nM; IC50 (αvβ5): 39.8 nM; IC50 (αvβ1): 501 nM; IC50 (αvβ8): 39.8 nM

`COCCOc1ccc(F)c([C@H](CC(=O)O)CN2CC[C@@H](CCc3ccc4c(n3)NCCC4)C2)c1` [Example 16, (S)-3-(2-Fluoro-5-(2-methoxyethoxy)phenyl)-4-((R)-3-(2-(5,6,7,8-tetrahydro-1,8-naphthyridin-2-yl)ethyl)pyrrolidin-1-yl)butanoic acid] was tested. Which IC50 (αvβ6) did it give?
The IC50 was 7.94 nM.

And the IC50 (αvβ8)?
Its IC50 is 100 nM.

Which IC50 (αvβ3) does the source give for `COCC(COC)Oc1cccc(C(CC(=O)O)CN2CC[C@@H](CCc3ccc4c(n3)NCCC4)C2)c1` (stereo partly drawn) [Example 17, 3-(3-((1,3-Dimethoxypropan-2-yl)oxy)phenyl)-4-((R)-3-(2-(5,6,7,8-tetrahydro-1,8-naphthyridin-2-yl)ethyl)pyrrolidin-1-yl)butanoic acid] here?
Its IC50 is 398 nM.

And the IC50 (αvβ6)?
The IC50 was 12.6 nM.

And the IC50 (αvβ8)?
Its IC50 is 20 nM.

Which results are given for `COCCOc1cc(OCCF)cc(C(CC(=O)O)CN2CC[C@@H](CCc3ccc4c(n3)NCCC4)C2)c1` (stereo partly drawn) [Example 18, 3-(3-(2-Fluoroethoxy)-5-(2-methoxyethoxy)phenyl)-4-((R)-3-(2-(5,6,7,8-tetrahydro-1,8-naphthyridin-2-yl)ethyl)pyrrolidin-1-yl)butanoic acid]?
IC50 (αvβ3): 398 nM; IC50 (αvβ6): 5.01 nM; IC50 (αvβ1): 200 nM; IC50 (αvβ8): 25.1 nM

Which IC50 (αvβ3) does the source give for `COCCCOc1cccc(C(CC(=O)O)CN2CC[C@@H](CCc3ccc4c(n3)NCCC4)C2)c1` (stereo partly drawn) [Example 19, 3-(3-(3-Methoxypropoxy)phenyl)-4-((R)-3-(2-(5,6,7,8-tetrahydro-1,8-naphthyridin-2-yl)ethyl)pyrrolidin-1-yl)butanoic acid] here?
Its IC50 is 158 nM.

What about the IC50 (αvβ6) of the same molecule?
Its IC50 is 10 nM.

And the IC50 (αvβ5)?
Its IC50 is 63.1 nM.

And the IC50 (αvβ8)?
The IC50 was 12.6 nM.

Which results are given for `O=C(O)CC(CN1CC[C@@H](CCc2ccc3c(n2)NCCC3)C1)c1cccc(OCC2COC2)c1` (stereo partly drawn) [Example 20, 3-(3-(Oxetan-3-ylmethoxy)phenyl)-4-((R)-3-(2-(5,6,7,8-tetrahydro-1,8-naphthyridin-2-yl)ethyl)pyrrolidin-1-yl)butanoic acid]?
IC50 (αvβ3): 398 nM; IC50 (αvβ6): 7.94 nM; IC50 (αvβ8): 20 nM
